According to ChEMBL document CHEMBL1144814, “5-Sulfonyl-benzimidazoles as selective CB2 agonists” (Bioorg Med Chem Lett, 2008):

Assays:
Cannabinoid receptor 2 = Cannabinoid receptor 2 (Homo sapiens, UniProt P34972); experiment: Agonist activity at human CB2 receptor; format: functional
[1] = Ratio of EC50 for CB2 receptor to EC50 for CB1 receptor (unknow origin)
[2] = Metabolism in human liver microsomes after 15 mins
[3] = biological target: T1, Cannabinoid receptor 2 (Rattus norvegicus) (UniProt Q9QZN9); experiment: Agonist activity at rat CB2 receptor; format: functional
T1 sequence (whole entry): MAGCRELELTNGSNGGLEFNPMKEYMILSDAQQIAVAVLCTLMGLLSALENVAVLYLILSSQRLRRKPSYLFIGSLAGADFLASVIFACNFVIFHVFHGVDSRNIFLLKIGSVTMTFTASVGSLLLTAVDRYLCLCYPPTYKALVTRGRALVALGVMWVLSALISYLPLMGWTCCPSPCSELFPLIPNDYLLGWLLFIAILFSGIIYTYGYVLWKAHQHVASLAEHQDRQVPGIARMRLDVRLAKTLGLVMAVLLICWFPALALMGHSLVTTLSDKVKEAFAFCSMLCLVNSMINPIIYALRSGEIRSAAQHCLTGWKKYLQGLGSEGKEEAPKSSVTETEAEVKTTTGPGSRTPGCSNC

[4] = Oral bioavailability in Sprague-Dawley rat at 10 mg/kg; format: ADME, organism-based; settings: in vivo
[5] = Ratio of drug level in brain to plasma in Sprague-Dawley rat at 10 mg/kg, po; format: ADME, organism-based; set-up: dose 10 mg/kg, route oral; settings: read-out: BPR
[6] = Cmax in Sprague-Dawley rat at 10 mg/kg, po; format: ADME, organism-based; set-up: dose 10 mg/kg, route oral; settings: in vivo
[7] = Tmax in Sprague-Dawley rat at 10 mg/kg, po; format: ADME, organism-based; set-up: dose 10 mg/kg, route oral; settings: in vivo
[8] = Half life in Sprague-Dawley rat at 10 mg/kg, po; format: ADME, organism-based; set-up: dose 10 mg/kg, route oral; settings: in vivo
[9] = AUC (0 to infinity) in Sprague-Dawley rat at 10 mg/kg, po; format: ADME, organism-based; set-up: time infinity, dose 10 mg/kg, route oral; settings: plasma
Rattus norvegicus = experiment: Induction of CB1-mediated side effects in Sprague-Dawley rat at 40 mg/kg, po by tetrad test; format: organism-based; set-up: dose 40 mg/kg, route oral; settings: in vivo
CYP2C19 = CYP2C19 (Homo sapiens, UniProt P33261); experiment: Inhibition of CYP2C19 at 10 uM; format: ADME
Chain of CYP2C19 (P33261 whole entry): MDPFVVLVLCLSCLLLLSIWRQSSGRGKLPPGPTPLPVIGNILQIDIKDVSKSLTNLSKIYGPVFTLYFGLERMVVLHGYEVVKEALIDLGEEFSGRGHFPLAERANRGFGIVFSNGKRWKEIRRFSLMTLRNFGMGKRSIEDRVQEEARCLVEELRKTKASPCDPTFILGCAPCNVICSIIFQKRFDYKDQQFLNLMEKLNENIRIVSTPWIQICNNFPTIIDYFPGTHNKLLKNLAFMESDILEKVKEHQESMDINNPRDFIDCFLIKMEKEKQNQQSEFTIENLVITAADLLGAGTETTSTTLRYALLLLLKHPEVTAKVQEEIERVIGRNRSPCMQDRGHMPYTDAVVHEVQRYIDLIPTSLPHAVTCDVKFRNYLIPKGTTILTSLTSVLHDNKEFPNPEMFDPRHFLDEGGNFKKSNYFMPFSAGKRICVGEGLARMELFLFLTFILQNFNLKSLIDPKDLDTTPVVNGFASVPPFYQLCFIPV

CYP2C9 = CYP2C9 (Homo sapiens, UniProt P11712); experiment: Inhibition of CYP2C9 at 10 uM; format: ADME
Chain of CYP2C9 (P11712 whole entry): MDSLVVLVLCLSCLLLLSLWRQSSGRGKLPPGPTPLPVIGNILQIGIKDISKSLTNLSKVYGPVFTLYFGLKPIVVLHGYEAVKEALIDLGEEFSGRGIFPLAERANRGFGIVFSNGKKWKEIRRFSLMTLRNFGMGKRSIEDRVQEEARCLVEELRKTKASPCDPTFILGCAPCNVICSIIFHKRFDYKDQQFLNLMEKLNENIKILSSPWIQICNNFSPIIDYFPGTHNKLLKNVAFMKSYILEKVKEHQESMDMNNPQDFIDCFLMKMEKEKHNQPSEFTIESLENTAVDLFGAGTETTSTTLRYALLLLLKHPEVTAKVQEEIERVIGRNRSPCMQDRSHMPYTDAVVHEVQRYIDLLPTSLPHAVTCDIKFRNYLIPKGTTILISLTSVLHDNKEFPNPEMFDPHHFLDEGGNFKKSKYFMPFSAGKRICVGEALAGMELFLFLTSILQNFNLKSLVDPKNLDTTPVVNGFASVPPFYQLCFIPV

[10] = Fraction of dose absorbed in Sprague-Dawley rat at 10 mg/kg, po; format: ADME, organism-based; set-up: dose 10 mg/kg, route oral; settings: in vivo, read-out: Fabs
Cytochrome P450 1A2 = biological target: T2, Cytochrome P450 1A2 (Homo sapiens, UniProt P05177); experiment: Inhibition of CYP1A2; format: ADME
T2 sequence (P05177 whole entry): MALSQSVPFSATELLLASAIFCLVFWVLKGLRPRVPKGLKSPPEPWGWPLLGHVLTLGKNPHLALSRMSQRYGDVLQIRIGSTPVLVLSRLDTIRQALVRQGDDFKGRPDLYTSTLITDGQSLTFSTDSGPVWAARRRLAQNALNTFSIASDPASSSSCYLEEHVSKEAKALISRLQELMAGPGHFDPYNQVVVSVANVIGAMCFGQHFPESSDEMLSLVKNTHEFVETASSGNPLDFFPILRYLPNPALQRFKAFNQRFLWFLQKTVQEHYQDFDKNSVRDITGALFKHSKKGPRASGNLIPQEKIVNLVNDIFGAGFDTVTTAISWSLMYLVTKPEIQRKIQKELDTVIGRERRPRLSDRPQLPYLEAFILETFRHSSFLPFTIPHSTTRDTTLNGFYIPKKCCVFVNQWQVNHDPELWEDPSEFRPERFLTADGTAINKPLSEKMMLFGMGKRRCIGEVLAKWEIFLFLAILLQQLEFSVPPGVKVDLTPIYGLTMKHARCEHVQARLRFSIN

Cytochrome P450 2C19 = Cytochrome P450 2C19 (Homo sapiens, UniProt P33261); experiment: Inhibition of CYP2C19; format: ADME
Chain of Cytochrome P450 2C19 (P33261 whole entry): as the sequence (P33261 whole entry) above

Cytochrome P450 2C9 = Cytochrome P450 2C9 (Homo sapiens, UniProt P11712); experiment: Inhibition of CYP2C9; format: ADME
Chain of Cytochrome P450 2C9 (P11712 whole entry): as the sequence (P11712 whole entry) above

Cytochrome P450 2D6 = Cytochrome P450 2D6 (Homo sapiens, UniProt P10635); experiment: Inhibition of CYP2D6; format: ADME
Chain of Cytochrome P450 2D6 (P10635 whole entry): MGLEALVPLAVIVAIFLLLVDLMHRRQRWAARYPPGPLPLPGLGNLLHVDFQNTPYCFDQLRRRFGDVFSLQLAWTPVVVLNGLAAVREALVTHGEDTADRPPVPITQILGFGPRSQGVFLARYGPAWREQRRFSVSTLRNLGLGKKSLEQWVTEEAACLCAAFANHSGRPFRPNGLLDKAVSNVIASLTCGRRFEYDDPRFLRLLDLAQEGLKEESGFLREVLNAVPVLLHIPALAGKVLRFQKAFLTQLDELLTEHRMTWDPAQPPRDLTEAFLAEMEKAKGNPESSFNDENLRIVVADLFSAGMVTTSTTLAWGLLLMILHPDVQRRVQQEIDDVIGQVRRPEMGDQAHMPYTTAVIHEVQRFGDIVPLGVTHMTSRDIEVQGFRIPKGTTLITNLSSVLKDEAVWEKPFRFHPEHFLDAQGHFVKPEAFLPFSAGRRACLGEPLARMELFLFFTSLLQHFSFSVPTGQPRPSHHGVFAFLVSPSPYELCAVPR

Cytochrome P450 3A4 = Cytochrome P450 3A4 (Homo sapiens, UniProt P08684); experiment: Inhibition of CYP3A4; format: ADME
Chain of Cytochrome P450 3A4 (P08684 whole entry): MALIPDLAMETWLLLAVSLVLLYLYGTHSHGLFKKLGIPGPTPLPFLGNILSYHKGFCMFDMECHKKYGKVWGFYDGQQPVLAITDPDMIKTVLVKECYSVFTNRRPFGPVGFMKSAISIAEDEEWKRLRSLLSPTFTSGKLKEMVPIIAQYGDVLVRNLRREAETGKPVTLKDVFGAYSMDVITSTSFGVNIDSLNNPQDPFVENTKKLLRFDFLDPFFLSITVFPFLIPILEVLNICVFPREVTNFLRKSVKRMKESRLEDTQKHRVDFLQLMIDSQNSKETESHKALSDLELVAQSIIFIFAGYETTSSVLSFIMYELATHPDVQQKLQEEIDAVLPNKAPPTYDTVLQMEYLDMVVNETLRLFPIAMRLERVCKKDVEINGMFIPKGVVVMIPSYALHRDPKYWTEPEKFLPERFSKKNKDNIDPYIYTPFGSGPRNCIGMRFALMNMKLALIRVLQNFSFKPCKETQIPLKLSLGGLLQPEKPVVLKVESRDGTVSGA

[11] = Solubility at pH 7.4; format: physicochemical; settings: buffer
[12] = Solubility at pH 4; format: physicochemical; settings: buffer

Chain of Cannabinoid receptor 2 (P34972 whole entry): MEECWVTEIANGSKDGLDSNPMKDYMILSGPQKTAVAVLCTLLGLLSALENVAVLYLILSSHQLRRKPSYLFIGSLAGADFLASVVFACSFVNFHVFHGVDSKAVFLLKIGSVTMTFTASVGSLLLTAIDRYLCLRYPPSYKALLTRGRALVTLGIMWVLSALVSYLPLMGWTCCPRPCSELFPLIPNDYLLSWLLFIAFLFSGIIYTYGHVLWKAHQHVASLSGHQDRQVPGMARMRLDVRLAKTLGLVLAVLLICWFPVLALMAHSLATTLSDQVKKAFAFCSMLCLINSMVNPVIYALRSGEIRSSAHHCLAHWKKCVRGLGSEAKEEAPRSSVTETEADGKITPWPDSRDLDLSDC

Row | SMILES | EC50 (Cannabinoid receptor 2) | Ratio EC50 [1] | metabolized at 0.25 h [2] | other results
1 | CCOc1ccc(Cc2nc3cc(S(=O)(=O)CC)ccc3n2CC2CCOCC2)cc1 | 4 nM | 1600 | 34% | Efficacy (Cannabinoid receptor 2): 44%
2 | CCOc1ccc(Cc2nc3cc(S(=O)(=O)CC)c(Cl)cc3n2CC2CCOCC2)cc1 | 20 nM | 537 | 66% | –
3 | CC(C)(C)c1nc2cc(S(=O)(=O)c3ccnc(F)c3)ccc2n1CC1CCOCC1 | 0.8 nM | 495 | 40% | –
4 | CCS(=O)(=O)c1ccc2c(c1)nc(C1CC1)n2CC1CCOCC1 | 4 nM | – | – | Efficacy (Cannabinoid receptor 2): 109%; Efficacy [3]: 0%
5 | CCOc1ccc(Cc2nc3cc(SCC)c(Cl)cc3n2CC2CCCCC2)cc1 | 125 nM | 1.2 | 85% | –
6 | CCS(=O)(=O)c1ccc2c(c1)nc(C)n2CC1CCCCC1 | 31 nM | – | – | –
7 | CCS(=O)(=O)c1ccc2c(c1)nc(C(C)(C)C)n2CC1CCOCC1 | 1.2 nM | 551 | 0% | Efficacy (Cannabinoid receptor 2): 120%; Efficacy [3]: 102%
8 | CCS(=O)(=O)c1ccc2c(c1)nc(C(C)(C)C)n2CC1CCCCC1 | 0.8 nM | – | – | Efficacy (Cannabinoid receptor 2): 104%
9 | CC(C)(C)c1nc2cc(S(=O)(=O)c3ccccc3)ccc2n1CC1CCCCC1 | 1.2 nM | 14 | 23% | –
10 | CCOc1ccc(Cc2nc3cc([S+]([O-])CC)c(Cl)cc3n2CC2CCCCC2)cc1 (configuration not stated) | 6.3 nM | 8.2 | – | –
11 | CCOc1cc(S(=O)(=O)c2ccc3c(c2)nc(C(C)(C)C)n3CC2CCOCC2)ccn1 | 0.3 nM | 4270 | 48% | bioavailability [4]: 43%; Kp [5]: 0.1; Cmax [6]: 731 ng/mL; Tmax [7]: 0.5 h; half-life [8]: 3.4 h; AUC(0-inf) [9]: 2500 ng·h/mL; Activity (Rattus norvegicus): Non-toxic; inhibition at 10 µM (CYP2C19): 76%; inhibition at 10 µM (CYP2C9): 94%; Fa [10]: ≤ 1%
12 | CCS(=O)(=O)c1ccc2c(c1)nc(C(C)C)n2CC1CCCCC1 | 1.6 nM | – | – | Efficacy (Cannabinoid receptor 2): 101%; Efficacy [3]: 99%
13 | CCOc1ccc(Cc2nc3cc(Cl)c([S+]([O-])CC)cc3[nH]2)cc1 (configuration not stated) | > 10000 nM | – | – | –
14 | CCS(=O)(=O)c1ccc2c(c1)nc(CC(C)C)n2CC1CCOCC1 | 4 nM | – | – | Efficacy (Cannabinoid receptor 2): 101%; Efficacy [3]: 43%
15 | CC(C)(C)c1nc2cc(S(=O)(=O)CC3CC3)ccc2n1CC1CCOCC1 | 1.3 nM | 121 | 14% | –
16 | CC(C)(C)c1nc2cc(S(=O)(=O)c3c(Cl)cccc3Cl)ccc2n1CC1CCOCC1 | 0.4 nM | 292 | 96% | –
17 | CC(C)(C)c1nc2cc(S(=O)(=O)c3cccc(C#N)c3)ccc2n1CC1CCOCC1 | 0.5 nM | 1460 | 61% | –
18 | CC(=O)N(C)Cc1ccc(S(=O)(=O)c2ccc3c(c2)nc(C(C)(C)C)n3CC2CCOCC2)cc1 | 1.6 nM | 550 | 50% | –
19 | CCOc1ccc(Cc2nc3cc(SCC)c(Cl)cc3n2CC2CCOCC2)cc1 | 4 nM | 75 | 98% | –

Row | SMILES | EC50 (Cannabinoid receptor 2) | Ratio EC50 [1] | metabolized at 0.25 h [2] | other results
20 | CC(C)(C)c1nc2cc(S(=O)(=O)c3ccncc3)ccc2n1CC1CCOCC1 | 1.2 nM | 215 | 28% | –
21 | CC(C)(C)c1nc2cc(S(=O)(=O)c3ccc(CN)cc3)ccc2n1CC1CCOCC1 | 5 nM | 363 | – | –
22 | CC(C)(C)c1nc2cc(S(=O)(=O)CCN)ccc2n1CC1CCOCC1 | 10 nM | 912 | – | –
23 | CCNCCCS(=O)(=O)c1ccc2c(c1)nc(C(C)(C)C)n2CC1CCOCC1 | 158 nM | 4.3 | – | –
24 | CC(C)(C)c1nc2cc(S(=O)(=O)CCC#N)ccc2n1CC1CCOCC1 | 4 nM | 2110 | 24% | –
25 | Cc1cc(S(=O)(=O)c2ccc3c(c2)nc(C(C)(C)C)n3CC2CCOCC2)ccn1 | 1.3 nM | 1620 | 40% | –
26 | CC(C)(C)c1nc2cc(S(=O)(=O)CCCC(F)(F)F)ccc2n1CC1CCOCC1 | 1 nM | 285 | 36% | –
27 | CC(C)(C)c1nc2cc(S(=O)(=O)c3ccc(C#N)cc3)ccc2n1CC1CCOCC1 | 0.6 nM | 191 | 42% | –
28 | CCOc1ccc(Cc2nc3cc(SCC)c(Cl)cc3[nH]2)cc1 | 2000 nM | – | – | –
29 | CC(C)(C)c1nc2cc(S(=O)(=O)CCC(F)(F)F)ccc2n1CC1CCOCC1 | 1.3 nM | 394 | 13% | –
30 | CC(=O)NCCCS(=O)(=O)c1ccc2c(c1)nc(C(C)(C)C)n2CC1CCOCC1 | 100 nM | 109 | – | –
31 | [O-][S+](Cc1ccc(Cl)cc1)c1cc2nc(C3CCCCC3)[nH]c2cc1Cl (configuration not stated) | < 1 nM | > 1000 | < 50% | Efficacy (Cannabinoid receptor 2): > 100%; Inhibition (Cytochrome P450 1A2): < 50%; Inhibition (Cytochrome P450 2C19): < 50%; Inhibition (Cytochrome P450 2C9): < 50%; Inhibition (Cytochrome P450 2D6): < 50%; Inhibition (Cytochrome P450 3A4): < 50%; solubility [11]: > 20 µM; solubility [12]: > 20 µM
32 | CC(C)(C)c1nc2cc(S(=O)(=O)Cc3ccc(C#N)cc3)ccc2n1CC1CCCCC1 | 0.5 nM | 436 | 73% | –
33 | CC(C)(C)c1nc2cc(S(=O)(=O)c3ccco3)ccc2n1CC1CCOCC1 | 0.4 nM | 40 | – | –
34 | CCOc1ccc(Cc2nc3cc(S(=O)(=O)CC)c(Cl)cc3n2CC2CCCCC2)cc1 | 5 nM | 50 | 74% | –
35 | CC(C)(C)c1nc2cc(S(=O)(=O)C(F)(F)c3ccc(C#N)cc3)ccc2n1CC1CCCCC1 | 1.6 nM | 62 | 28% | –
36 | CC(C)(C)c1nc2cc(S(=O)(=O)c3nccs3)ccc2n1CC1CCOCC1 | 0.8 nM | 4 | 25% | –
37 | CCOc1ccc(Cc2nc3cc([S+]([O-])CC)c(Cl)cc3n2CC2CCOCC2)cc1 (configuration not stated) | 20 nM | 484 | 95% | –
38 | CC(C)(C)c1nc2cc(S(=O)(=O)CCO)ccc2n1CC1CCOCC1 | 2.5 nM | 3850 | 6% | –
